Source: publication PMC10880924, “Small molecule WDR5 inhibitors down-regulate lncRNA expression” (RSC Medicinal Chemistry, 2024)
Like-named read-outs stand apart in the source and are kept apart here. Bridge positions count the residues as written; N and C are the ends. Square brackets hold non-standard residues; d marks the D form. Peptide text beside a SMILES is read from it. Dab = NCC[C@H](N)C(=O)O

Tests used:
WDR5^WT (WBM site) = WDR5^WT (WBM site) (Homo sapiens, UniProt P61964)
WDR5^WT (WIN site) = WDR5^WT (WIN site) (Homo sapiens, UniProt P61964); conditions: for inhibition at the WIN site: competitive FP, tracer 1F
[1] = test system: HOTTIP expression in MDA-MB-231 cells; conditions: for HOTTIP fold change: mean ± SD
[2] = test system: FOXD3-AS1 expression in MDA-MB-231 cells; conditions: for FOXD3-AS1 fold change: mean ± SD
[3] = test system: TGF-β1 expression in MDA-MB-231 cells; conditions: 3 d, vs blank = 1.000, mean ± SD
[4] = 1 µM, 3 d, exp 8 (individual bioreplicate), vs blank = 1.000
[5] = 1 µM, 3 d, exp 9 (individual bioreplicate), vs blank = 1.000
[6] = 5 µM, 3 d, exp 7 (individual bioreplicate), vs blank = 1.000
[7] = 5 µM, 3 d, exp 8 (individual bioreplicate), vs blank = 1.000
[8] = 5 µM, 3 d, exp 9 (individual bioreplicate), vs blank = 1.000
[9] = 10 µM, 1 d, Exp. 1 (individual bioreplicate), vs blank 0.1% DMSO = 1.000
[10] = 10 µM, 1 d, Exp. 2 (individual bioreplicate), vs blank 0.1% DMSO = 1.000
[11] = 10 µM, 1 d, Exp. 3 (individual bioreplicate), vs blank 0.1% DMSO = 1.000
[12] = 10 µM, 1 d, Exp. 4 (individual bioreplicate), vs blank 0.1% DMSO = 1.000
[13] = 10 µM, 1 d, Exp. 5 (individual bioreplicate), vs blank 0.1% DMSO = 1.000
[14] = 10 µM, 1 d, Exp. 6 (individual bioreplicate), vs blank 0.1% DMSO = 1.000
[15] = 10 µM, 3 d, Exp. 7 (individual bioreplicate), vs blank 0.1% DMSO = 1.000
[16] = 10 µM, 3 d, Exp. 8 (individual bioreplicate), vs blank 0.1% DMSO = 1.000
[17] = 10 µM, 3 d, Exp. 9 (individual bioreplicate), vs blank 0.1% DMSO = 1.000
[18] = 10 µM, 3 d, Exp. 10 (individual bioreplicate), vs blank 0.1% DMSO = 1.000
[19] = 10 µM, 3 d, Exp. 11 (individual bioreplicate), vs blank 0.1% DMSO = 1.000
[20] = 10 µM, 3 d, Exp. 12 (individual bioreplicate), vs blank 0.1% DMSO = 1.000
[21] = MDA-MB-231, three days, 1/5/10 μM tested

**Q.** For `CC(=O)N[C@@H](C)C(=O)N[C@@H](CCCNC(=N)N)C(=O)N[C@H](C(=O)N[C@@H](CCC(=O)O)C(=O)N[C@H](C(=O)N[C@@H](Cc1c[nH]cn1)C(=O)N[C@@H](CC(C)C)C(=O)N[C@@H](CCCNC(=N)N)C(=O)N[C@@H](CCCCN)C(=O)N[C@@H](CO)C(N)=O)C(C)C)[C@@H](C)O` [1NH2], which “inhibition at the WBM site” value (WDR5^WT (WBM site); competitive FP, tracer 2F) is on record?
**A.** The value was “does not inhibit the WBM-site”.

**Q.** How did the “inhibition at the WIN site” value (WDR5^WT (WIN site)) turn out when `CC[C@H](C)[C@H](NC(=O)[C@H](CCC(=O)O)NC(=O)[C@H](CCC(=O)O)NC(=O)[C@H](CCC(=O)O)NC(=O)[C@H](CC(=O)O)NC(C)=O)C(=O)N[C@H]1CC(=O)NCC[C@@H](C(=O)N[C@H](C(=O)N[C@@H](CCC(=O)O)C(N)=O)C(C)C)NC(=O)[C@H](C(C)C)NC(=O)[C@H](C(C)C)NC1=O` [2Ac] (Ac-DEEEIDVV[Dab]VE-NH2; lactam 6-9) was run?
**A.** Its value is “vice versa”.

**Q.** `CNC(=O)c1cc(C2(C#N)CCC2)cc(NS(=O)(=O)c2cc(Br)cc(Cl)c2O)c1O` [7k, 3-((5-Bromo-3-chloro-2-hydroxyphenyl)sulfonamido)-5-(1cyanocyclobutyl)-2-hydroxy-N-methylbenzamide] was tested. Which “inhibition at the WIN site” value (WDR5^WT (WIN site)) did it give?
**A.** The value was “did not observe any crossover inhibition”.

**Q.** What about the Ki (WDR5^WT (WIN site); read-out: Ki (tracer 1F), WIN site, WDR5^WT 2 nM, 1F 0.6 nM, HEPES pH 7.0, 0.01% Triton-X, 1% DMSO, mean ± SD of four replicates (two biological x two technical), converted from IC50) of the same compound?
**A.** The Ki was greater than 40000 nM.

**Q.** And the Ki (WDR5^WT (WBM site); read-out: Ki (tracer 2F), WBM site, WDR5^WT 500 nM, 2F 5.0 nM, HEPES pH 7.0, 0.01% Triton-X, 1% DMSO, mean ± SD of four replicates (two biological x two technical), converted from IC50)?
**A.** The Ki was 107 ± 20 nM.

**Q.** And the HOTTIP fold change ([1]; 1 µM, 3 d, exp 7 (individual bioreplicate), vs blank = 1.000)?
**A.** The HOTTIP fold change was 0.923 ± 0.164.

**Q.** What about the HOTTIP fold change [1, 4] of the same compound?
**A.** The HOTTIP fold change was 0.821 ± 0.069.

**Q.** And the HOTTIP fold change [1, 5]?
**A.** Its HOTTIP fold change is 1.189 ± 0.152.

**Q.** What about the HOTTIP fold change [1, 6] of the same compound?
**A.** The HOTTIP fold change was 0.643 ± 0.184.

**Q.** What about the HOTTIP fold change [1, 7] of the same compound?
**A.** Its HOTTIP fold change is 0.877 ± 0.062.

**Q.** And the HOTTIP fold change [1, 8]?
**A.** The HOTTIP fold change was 0.915 ± 0.153.

**Q.** And the HOTTIP fold change [1, 9]?
**A.** Its HOTTIP fold change is 0.963 ± 0.284.

**Q.** And the HOTTIP fold change [1, 10]?
**A.** Its HOTTIP fold change is 1.521 ± 0.182.

**Q.** What about the HOTTIP fold change [1, 11] of the same compound?
**A.** Its HOTTIP fold change is 1.129 ± 0.176.

**Q.** What about the HOTTIP fold change [1, 12] of the same compound?
**A.** The HOTTIP fold change was 0.970 ± 0.197.

**Q.** What about the HOTTIP fold change [1, 13] of the same compound?
**A.** The HOTTIP fold change was 0.988 ± 0.141.

**Q.** And the HOTTIP fold change [1, 14]?
**A.** The HOTTIP fold change was 0.618 ± 0.071.

**Q.** What about the HOTTIP fold change [1, 15] of the same compound?
**A.** Its HOTTIP fold change is 0.464 ± 0.082.

**Q.** And the HOTTIP fold change [1, 16]?
**A.** Its HOTTIP fold change is 0.570 ± 0.035.

**Q.** And the HOTTIP fold change [1, 17]?
**A.** The HOTTIP fold change was 0.733 ± 0.095.

**Q.** What about the HOTTIP fold change [1, 18] of the same compound?
**A.** The HOTTIP fold change was 0.646 ± 0.116.

**Q.** And the HOTTIP fold change [1, 19]?
**A.** The HOTTIP fold change was 1.031 ± 0.214.

**Q.** What about the HOTTIP fold change [1, 20] of the same compound?
**A.** The HOTTIP fold change was 0.548 ± 0.132.

**Q.** What about the “concentration required for significant changes of HOTTIP expression” value [1, 21] of the same compound?
**A.** The value was 10 µM.

**Q.** What about the FOXD3-AS1 fold change [2, 4] of the same compound?
**A.** The FOXD3-AS1 fold change was 0.984 ± 0.128.

**Q.** And the FOXD3-AS1 fold change [2, 5]?
**A.** The FOXD3-AS1 fold change was 0.971 ± 0.104.

**Q.** What about the FOXD3-AS1 fold change [2, 6] of the same compound?
**A.** The FOXD3-AS1 fold change was 0.753 ± 0.078.

**Q.** And the FOXD3-AS1 fold change [2, 7]?
**A.** The FOXD3-AS1 fold change was 1.178 ± 0.131.

**Q.** What about the FOXD3-AS1 fold change [2, 8] of the same compound?
**A.** The FOXD3-AS1 fold change was 1.020 ± 0.085.

**Q.** What about the FOXD3-AS1 fold change [2, 9] of the same compound?
**A.** Its FOXD3-AS1 fold change is 0.913 ± 0.098.

**Q.** What about the FOXD3-AS1 fold change [2, 10] of the same compound?
**A.** Its FOXD3-AS1 fold change is 1.000 ± 0.050.

**Q.** What about the FOXD3-AS1 fold change [2, 11] of the same compound?
**A.** The FOXD3-AS1 fold change was 0.842 ± 0.122.

**Q.** And the FOXD3-AS1 fold change [2, 12]?
**A.** The FOXD3-AS1 fold change was 0.826 ± 0.055.

**Q.** And the FOXD3-AS1 fold change [2, 13]?
**A.** The FOXD3-AS1 fold change was 1.053 ± 0.047.

**Q.** And the FOXD3-AS1 fold change [2, 14]?
**A.** The FOXD3-AS1 fold change was 0.901 ± 0.056.

**Q.** What about the FOXD3-AS1 fold change [2, 15] of the same compound?
**A.** Its FOXD3-AS1 fold change is 0.756 ± 0.076.

**Q.** And the FOXD3-AS1 fold change [2, 16]?
**A.** Its FOXD3-AS1 fold change is 1.075 ± 0.124.

**Q.** What about the FOXD3-AS1 fold change [2, 17] of the same compound?
**A.** Its FOXD3-AS1 fold change is 0.847 ± 0.077.

**Q.** And the FOXD3-AS1 fold change [2, 18]?
**A.** Its FOXD3-AS1 fold change is 0.798 ± 0.040.

**Q.** And the FOXD3-AS1 fold change [2, 19]?
**A.** Its FOXD3-AS1 fold change is 0.944 ± 0.033.

**Q.** What about the FOXD3-AS1 fold change [2, 20] of the same compound?
**A.** Its FOXD3-AS1 fold change is 0.650 ± 0.065.

**Q.** What about the TGF-β1 fold change ([3]; 1 µM, exp 7 (individual bioreplicate)) of the same compound?
**A.** Its TGF-β1 fold change is 0.972 ± 0.048.

**Q.** What about the TGF-β1 fold change ([3]; 1 µM, exp 8 (individual bioreplicate)) of the same compound?
**A.** Its TGF-β1 fold change is 1.020 ± 0.062.

**Q.** What about the TGF-β1 fold change ([3]; 1 µM, exp 9 (individual bioreplicate)) of the same compound?
**A.** The TGF-β1 fold change was 1.060 ± 0.127.

**Q.** What about the TGF-β1 fold change ([3]; 5 µM, exp 7 (individual bioreplicate)) of the same compound?
**A.** The TGF-β1 fold change was 0.916 ± 0.056.

**Q.** What about the TGF-β1 fold change ([3]; 5 µM, exp 8 (individual bioreplicate)) of the same compound?
**A.** Its TGF-β1 fold change is 1.009 ± 0.079.

**Q.** And the TGF-β1 fold change ([3]; 5 µM, exp 9 (individual bioreplicate))?
**A.** The TGF-β1 fold change was 1.003 ± 0.120.

**Q.** What about the TGF-β1 fold change ([3]; 10 µM, exp 7 (individual bioreplicate)) of the same compound?
**A.** The TGF-β1 fold change was 0.972 ± 0.055.

**Q.** What about the TGF-β1 fold change ([3]; 10 µM, exp 8 (individual bioreplicate)) of the same compound?
**A.** The TGF-β1 fold change was 0.987 ± 0.059.

**Q.** What about the TGF-β1 fold change ([3]; 10 µM, exp 9 (individual bioreplicate)) of the same compound?
**A.** The TGF-β1 fold change was 0.942 ± 0.101.

**Q.** What does the source list for `CN1CCN(c2ccc(-c3cccc(CN4CCOCC4)c3)cc2NC(=O)c2c[nH]c(=O)cc2C(F)(F)F)CC1` [OICR-9429]?
**A.** concentration of maximum effect on HOTTIP expression [1, 21]: 5 µM; concentration of maximum effect on FOXD3-AS1 expression [2, 21]: 5 µM
